Test results taken from US20250222116A1, “PARP-1 DEGRADATION AGENT AND USE THEREOF” (XIZANG HAISCO PHARMACEUTICAL CO., LTD., priority 2021, published 2025).

Assays:
[1] = target: PARP1 (Homo sapiens (Human), UniProt P09874); assay: PARP1 enzyme activity inhibition (chemiluminescence kit); assay type: biochemical
Method: (§1) PARP1, PARP2 and PARP7 chemical […] detection kits were all purchased from BPS Bioscience. The histone solution in the kit was diluted 5× with 1×PBS, and 25 μL of the diluted histone solution was added to a microwell plate and incubated overnight at 4° C. After the incubation was completed, the plate was washed three times with PBST (0.05% Tween-20). 25 μL of a blocking solution was added to the microwell plate and incubated at 25° C. for 90 minutes. After the incubation was completed, the plate was washed three times with PBST. 2.5 μL of compounds at different concentrations diluted in test buffer and 5 μL of 2.5× substrate mixed solution were added to the microwell plate. PARP1, PARP2 and PARP7 enzymes were diluted to 0.33, 0.23 and 5.00 ng/μL, respectively, 5 μL of the diluent was added to the microwell plate, and the reaction system was incubated at 25° C. for 60 minutes. After the incubation was completed, the plate was washed three times with PBST. […] ELISA ECL substrate A and substrate B were mixed at a ratio of 1:1 (v/v), 25 μL of the mixture was added to the microwell plate, and the chemiluminescence value was read using a BMG microplate reader.
(§2) Curve fitting was performed by four parameters (log(inhibitor) vs. response−Variable slope) using GraphPad Prism software, and the IC50 value was calculated.

[2] = target: T1, PARP2 (Homo sapiens (Human), UniProt Q9UGN5); assay: PARP2 enzyme activity inhibition (chemiluminescence kit); assay type: biochemical
T1 sequence (Q9UGN5 whole entry): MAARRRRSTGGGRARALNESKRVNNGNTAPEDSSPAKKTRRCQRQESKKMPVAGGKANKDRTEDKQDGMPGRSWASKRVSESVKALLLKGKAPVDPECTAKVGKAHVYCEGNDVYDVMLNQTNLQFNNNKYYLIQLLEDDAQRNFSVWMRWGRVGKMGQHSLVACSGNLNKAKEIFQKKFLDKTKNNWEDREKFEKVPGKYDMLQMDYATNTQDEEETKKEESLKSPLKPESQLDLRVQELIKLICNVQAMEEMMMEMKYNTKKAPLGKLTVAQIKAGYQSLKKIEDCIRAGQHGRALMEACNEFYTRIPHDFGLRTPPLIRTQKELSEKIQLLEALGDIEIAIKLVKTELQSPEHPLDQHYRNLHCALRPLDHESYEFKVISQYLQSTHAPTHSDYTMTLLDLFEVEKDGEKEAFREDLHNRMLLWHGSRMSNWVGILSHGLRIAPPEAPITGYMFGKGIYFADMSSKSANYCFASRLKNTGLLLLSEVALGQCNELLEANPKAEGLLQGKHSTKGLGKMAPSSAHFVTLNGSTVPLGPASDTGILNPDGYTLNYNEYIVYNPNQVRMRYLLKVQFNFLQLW
Method: as §1, §2

[3] = target: PARP7 (Homo sapiens (Human), UniProt Q7Z3E1); assay: PARP7 enzyme activity inhibition (chemiluminescence kit); assay type: biochemical
Chain of PARP7 (Q7Z3E1 whole entry): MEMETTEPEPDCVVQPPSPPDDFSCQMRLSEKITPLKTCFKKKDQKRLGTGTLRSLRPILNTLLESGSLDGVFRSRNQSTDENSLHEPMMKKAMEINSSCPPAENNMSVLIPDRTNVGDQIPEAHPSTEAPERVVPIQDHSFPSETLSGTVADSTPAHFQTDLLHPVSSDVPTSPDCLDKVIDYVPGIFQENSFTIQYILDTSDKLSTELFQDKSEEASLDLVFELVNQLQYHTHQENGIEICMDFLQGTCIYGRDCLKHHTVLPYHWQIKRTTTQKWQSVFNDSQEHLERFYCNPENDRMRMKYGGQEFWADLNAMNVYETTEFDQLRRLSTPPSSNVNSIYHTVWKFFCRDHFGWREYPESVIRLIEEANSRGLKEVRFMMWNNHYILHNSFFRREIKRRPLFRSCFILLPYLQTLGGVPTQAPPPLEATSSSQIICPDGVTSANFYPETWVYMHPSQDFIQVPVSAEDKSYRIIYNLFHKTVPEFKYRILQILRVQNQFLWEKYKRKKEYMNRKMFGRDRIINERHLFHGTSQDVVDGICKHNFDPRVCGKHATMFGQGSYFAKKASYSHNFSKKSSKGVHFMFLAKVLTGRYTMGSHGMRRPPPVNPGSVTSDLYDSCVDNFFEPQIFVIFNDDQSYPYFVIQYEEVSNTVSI
Method: as §1, §2

[4] = target: T1, PARP2; assay: PARP2 protein expression level in MDA-MB-231 cells; assay type: cell-based
Method: MDA-MB-231 cells were placed in a complete DMEM medium (supplemented with 10% FBS and 1% penicillin-streptomycin solution) and cultured at 37° C. and 5% CO2. The cells in the logarithmic growth phase were collected, the cell density was adjusted to 5×10^5 cells/well with the culture medium, and the cells were added to a 6-well cell culture plate at a volume of 1 mL/well, and cultured overnight in a 37° C., 5% CO2 incubator. On day 2, the compound to be tested was prepared to 2-fold the final concentration, 1 mL of the compounds at different concentrations were added to administration wells and a medium containing 0.2% DMSO was added to control wells, and the plate was incubated for 24 hours at 37° C. and 5% CO2. […] The supernatant was collected and the protein content was determined using the BCA method. The protein sample to be tested was diluted to 2 mg/mL, PARP2 was detected using a fully automated protein expression quantitative analyzer (ProteinSimple), and the internal reference protein was 3-actin (both antibodies were from CST). The software (Compass for SW) of the fully automated protein expression quantitative analyzer was used to process the raw data and calculate the peak area and the PARP2 expression rate relative to the control group. DC50 values were calculated using a four-parameter non-linear fitting model in Graphpad 8.3.0 software.

[5] = Pharmacokinetic test in rats; assay type: in vivo, SD rats
Method: 7.1 Experimental animals: male SD rats, about 220 g, 6-8 weeks old, 6 rats/compound, purchased from Chengdu Ddossy Experimental Animals Co., Ltd.
7.2 Experimental design: on the day of the experiment, 12 SD rats were randomly grouped according to their body weights. The animals were fasted with water available for 12 to 14 h one day before the administration, and were fed 4 h after the administration.
(§3) Before and after the administration, 0.15 mL of blood was taken from the orbit of the animals under isoflurane anesthesia and placed in an EDTAK2 centrifuge tube. The blood was centrifuged at 5000 rpm and 4° C. for 10 min to collect plasma. The blood collection time points for the intravenous administration group and intragastric administration group were: 0, 5 min, 15 min, 30 min, 1 h, 2 h, 4 h, 6 h, 8 h, and 24 h. Before analysis and detection, all samples were stored at −80° C. The samples were analyzed quantitatively by LC-MS/MS.

[6] = Pharmacokinetic test in mice; assay type: in vivo, ICR mice
Method: 8.1 Experimental animals: male ICR mice, 20 to 25 g, 18 mice/compound, purchased from Chengdu Ddossy Experimental Animals Co., Ltd.
8.2 Experimental design: on the day of the experiment, 36 ICR mice were randomly grouped according to their body weights. The animals were fasted with water available for 12 to 14 h one day before the administration, and were fed 4 h after the administration.
as §3, with “0.06” for “0.15”, “intravenous” for “intravenous administration”, “0 min,” for “0,”

[7] = male, SD, rat, iv, i.v. 2.5 mg/kg, plasma
[8] = male, ICR, mouse, iv, i.v. 2.5 mg/kg, plasma

Chain of PARP1 (P09874 whole entry): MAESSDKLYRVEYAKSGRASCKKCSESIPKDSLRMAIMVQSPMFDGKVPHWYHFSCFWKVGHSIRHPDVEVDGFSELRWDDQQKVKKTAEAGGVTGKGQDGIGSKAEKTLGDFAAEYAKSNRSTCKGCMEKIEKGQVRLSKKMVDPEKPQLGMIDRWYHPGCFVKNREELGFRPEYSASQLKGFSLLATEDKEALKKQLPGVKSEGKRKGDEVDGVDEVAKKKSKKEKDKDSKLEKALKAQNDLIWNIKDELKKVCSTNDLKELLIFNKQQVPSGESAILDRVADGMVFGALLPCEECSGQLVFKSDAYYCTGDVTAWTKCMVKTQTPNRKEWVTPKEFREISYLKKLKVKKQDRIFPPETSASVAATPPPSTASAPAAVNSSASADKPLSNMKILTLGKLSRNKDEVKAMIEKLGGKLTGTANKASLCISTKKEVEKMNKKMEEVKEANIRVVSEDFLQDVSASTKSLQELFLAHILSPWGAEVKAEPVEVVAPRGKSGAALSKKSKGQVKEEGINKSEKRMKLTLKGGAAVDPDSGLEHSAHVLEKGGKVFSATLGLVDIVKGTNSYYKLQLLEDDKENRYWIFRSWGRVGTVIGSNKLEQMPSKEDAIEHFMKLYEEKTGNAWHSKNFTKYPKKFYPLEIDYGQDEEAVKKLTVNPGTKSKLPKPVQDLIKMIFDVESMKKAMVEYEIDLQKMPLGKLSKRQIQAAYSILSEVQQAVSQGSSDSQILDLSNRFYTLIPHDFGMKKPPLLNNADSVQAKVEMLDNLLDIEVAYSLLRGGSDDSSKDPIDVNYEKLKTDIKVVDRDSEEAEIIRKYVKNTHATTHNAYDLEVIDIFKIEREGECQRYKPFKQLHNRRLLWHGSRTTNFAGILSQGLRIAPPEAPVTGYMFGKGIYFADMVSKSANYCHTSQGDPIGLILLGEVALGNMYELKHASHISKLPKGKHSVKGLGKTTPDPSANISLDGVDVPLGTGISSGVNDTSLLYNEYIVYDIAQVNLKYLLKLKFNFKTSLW

CCc1cc2ncc(CN3CCN(c4ccc(C(=O)NC5CCN(c6ccc7c(c6)C(=O)N(C6CCC(=O)NC6=O)C7=O)CC5)nc4)CC3)cc2[nH]c1=O (stereo not drawn) [Compound 10, N-(1-(2-(2,6-dioxopiperidin-3-yl)-1,3-dioxoisoindolin-5-yl)piperidin-4-yl)-5-(4-((7-ethyl-6-oxo-5,6-dihydro-1,5-naphthyridin-3-yl)methyl)piperazin-1-yl)picolinamide]
IC50 ([1]; PARP1 enzyme): 0.32 nM
PARP1 inhibitory selectivity over PARP2 and PARP7 ([1]; enzyme activities in vitro): good PARP1 inhibitory selectivity
IC50 [2]: 41 nM
IC50 [3]: 91 nM
PARP1 degradation selectivity over PARP2 [4]: good PARP1 degradation selectivity
DC50 ([4]; 24 hours): > 5 nM
pharmacokinetic characteristics [5]: good pharmacokinetic characteristics
F ([5]; i.g. 10 mg/kg): 34.3%
AUC(0-t) [5, 7]: 31200 ng·h/mL
clearance [5, 7]: 1.42 mL/min/kg
Vd ([5]; male, SD, rat, iv, i.v. 2.5 mg/kg, plasma, read-out: Vdss): 0.405 L/kg
AUC(0-t) ([5]; male, SD, rat, po, i.g. 10 mg/kg, plasma): 42900 ng·h/mL
pharmacokinetic characteristics [6]: good pharmacokinetic characteristics
F ([6]; i.g. 10 mg/kg): 84.6%
AUC(0-t) [6, 8]: 20600 ng·h/mL
clearance [6, 8]: 2.02 mL/min/kg
Vd ([6]; male, ICR, mouse, iv, i.v. 2.5 mg/kg, plasma, read-out: Vdss): 0.358 L/kg
AUC(0-t) ([6]; male, ICR, mouse, po, i.g. 10 mg/kg, plasma): 69800 ng·h/mL
